Laboratory results published in patent US12509441B2, “Compounds used as kinase inhibitors and application thereof” (TYK MEDICINES (ZHENGZHOU), INC., priority 2020, dated 2025).
Like-named read-outs stand apart in the source and are kept apart here.

Key:
Format in all cases: cell-based
[1] = target: Ba/F3-FL-EGFR-A763-Y764 ins FQEA (Homo sapiens, UniProt P00533, INS763FQEA, cells depend on it); test: Cell proliferation inhibitory activity test (CellTiter-Glo), EGFR exon 20 insertion mutation; settings: 72 h, read-out: Ba/F3-FL-EGFR IC50 (nM) A763-Y764ins FQEA
Description: (§1) Cell Proliferation Inhibitory Activity Test Experiment of EGFR Exon 20 Insertion Mutation:
(§2) Cells such as Ba/F3-FL-EGFR-V769-D770 ins ASV, Ba/F3-FL-EGFR-D77-N771 ins SVD, Ba/F3-FL-EGFR-H773-V774 ins NPH, Ba/F3-FL-EGFR-A763-Y764 ins FQEA, constructed by Hefei Precedo Pharmaceuticals Co., Ltd.
(§3) 1000× compound mother liquor was prepared using DMSO, diluted to 20× final concentration using a culture medium, set aside.
(§4) Cells obtained after centrifugation were suspended with a certain amount of the culture medium and counted. The cell suspension solution was adjusted to a specified density using the culture medium, the diluted cell suspension solution was taken into a 96-well plate; 5 μl of 20× compound solution was added to each well of the 96-well plate, the content of DMSO in the final system was 0.1%; the 96-well plate was incubated for 72 h in a 5% CO2 cell incubator at 37° C.
(§5) The 96-well plate was brought to room temperature before detection, 50 μl of CellTiter-Glo® reagent was added to each well, the plate was read after being shaken for 2 minutes on a shaker and placed for 10 minutes at room temperature.
(§6) Inhibition rate (Inh %) relative to control wells processed by a solvent (DMSO) was calculated using the following equation: Inhibition rate (Inh %)=100−(RLU compound−RLU blank)/(RLU control−RLU blank)*100%

[2] = test system: H-1975 (EGFRL858R/T790M) cells; test: Cell proliferation inhibitory activity test (WST-8) of related EGFR mutations
Description: (§7) Cell Proliferation Inhibitory Activity Test Experiments of Related EGFR Mutations: 1.
(§8) Cell culture medium: RPMI containing 10% fetal bovine serum, 5 mM HEPES, and 2 mM glutamine.
(§9) Incubated overnight in a 5% carbon dioxide incubator at 37° C.
(§10) The compound was diluted to the required concentration in the culture medium at five times the final concentration. 20 microliters of the compound diluent was transferred to a culture plate containing 80 microliters of the cells incubated overnight, and continued to be incubated for 72 hours.
(§11) After 72 hours, 10 microliters of 6 mg/ml WST8 solution dissolved in a phosphate buffer solution was added, and incubated for 3 hours in 5% carbon dioxide at 37° C. A light absorption value at 450 nm was read and subtracted by an absorption value at 650 nm.
(§12) The obtained light absorption value was used to calculate cell viability according to the following equation: Cell viability %=(OD determination value/OD drug-free cell)×100

[3] = target: Ba/F3 (EGFRdel19/L858R/C797S) (Homo sapiens, UniProt P00533, C797S/L858R, cells depend on it, form not given); test: as above; settings: 72 h, cell viability; read-out: IC 50 (nM) Ba/F3 (EGFRdel19/L858/797s)
[4] = target: Ba/F3-FL-EGFR-H773-V774 ins NPH (Homo sapiens, UniProt P00533, DUP771-773, cells depend on it); test: Cell proliferation inhibitory activity test (CellTiter-Glo), EGFR exon 20 insertion mutation; settings: 72 h, read-out: Ba/F3-FL-EGFR IC50 (nM) H773-V774ins NPH
Description: as §1, §2, §3, §4, §5, §6

[5] = target: Ba/F3-FL-EGFR-D77-N771 ins SVD (Homo sapiens, UniProt P00533, DUP768-770, cells depend on it); test: as above; settings: 72 h, read-out: Ba/F3-FL-EGFR IC50 (nM) D77-N771ins SVD
Description: as §1, §2, §3, §4, §5, §6

PC9 (EGFRdel19) cells = test: Cell proliferation inhibitory activity test (WST-8) of related EGFR mutations
Description: as §7, §8, §9, §10, §11, §12

[6] = target: T1, Ba/F3-FL-EGFR-V769-D770 ins ASV (Homo sapiens, UniProt P00533, DUP767-769, cells depend on it); test: Cell proliferation inhibitory activity test (CellTiter-Glo), EGFR exon 20 insertion mutation; settings: 72 h, read-out: Ba/F3-FL-EGFR IC50 (nM) V769-D770ins ASV
T1 construct: Ba/F3-FL-EGFR IC50 (nM) V769-D770ins ASV; other: 72 h; class symbols; Ba/F3-FL-EGFR IC50 (nM) V769-D770ins ASV
Description: as §1, §2, §3, §4, §5, §6

[7] = target: T2, Ba/F3-FL-EGFR-V769-D770 ins ASV (Homo sapiens, UniProt P00533, cells depend on it, form not given); test: as above; settings: Ba/F3-FL-EGFR exon 20 insertion lines, see Table 6
T2 construct: rows headed: activity relative to the activity of TAK-788; Ba/F3-FL-EGFR

SMILES: C=CC(=O)Nc1cc(Nc2ncc(-c3nnc(C)o3)c(-c3cn(C)c4ccccc34)n2)c(OC)cc1N(C)C1[C@H]2CN(C)C[C@@H]12 (some centres unmarked) [Example 18]
- GI50 ([1]; class symbols): < 5 nM
- GI50 [1]: 1.8 nM
- cytostatic activity compared with osimertinib and TAK788 ([2]; H-1975 (EGFRL858/T790M)): not much different from osimertinib activity
- IC50 ([2]; Homo sapiens, NCI-H1975, 72 h, cell viability, read-out: IC 50 (nM) H-1975 (EGFRL858/T790M)): 91.2 nM
- GI50 [3]: 3980 nM
- GI50 ([4]; class symbols): < 5 nM
- GI50 [4]: 2.8 nM
- GI50 ([5]; class symbols): < 5 nM
- GI50 [5]: 2.8 nM
- IC50 (PC9 (EGFRdel19) cells; 72 h, cell viability, read-out: IC 50 (nM) PC-9 (EGFRdel19)): 6.61 nM
- cytostatic activity compared with osimertinib and TAK788 (PC9 (EGFRdel19) cells; C-9 (EGFRdel19)): not much different from osimertinib activity
- GI50 ([6]; class symbols): < 5 nM
- GI50 [6]: 1.9 nM
- activity relative to the activity of TAK-788 [7]: around 2 times
